Data from patent publication US11433053B2, “LSD1 inhibitor and preparation method and application thereof” (CSPC ZHONGQI PHARMACEUTICAL TECHNOLOGY (SHIJIAZHUANG) CO., …, priority 2017, dated 2022).

Experiments:
hERG potassium channel = hERG potassium channel (Homo sapiens (Human), UniProt Q12809); experiment: Assay on inhibiting hERG potassium channel (automatic patch clamp, CHO-hERG cells); format: cell-based; settings: Qpatch, max test concentration 40 μM
Procedure: Experimental purpose: Using automatic patch clamp method to detect the effect of the sample to be tested on hERG potassium channel.
4.1.1 CHO-hERG cells were cultured in 175 cm^2 flasks. When the cell density was increased to 60-80%, the culture solution was removed and the resultant was washed with 7 mL PBS (Phosphate Buffered Saline phosphate buffer), then 3 mL of digestive juice was added to digest.
4.1.2 After the digestion finished, 7 mL culture solution was added to neutralize. Then centrifuge, aspirate the supernatant, and then resuspend by adding 5 mL culture solution to ensure a cell density of 2-5×10^6/mL.
Single cell high impedance sealing and whole cell pattern formation were all done automatically by the Qpatch instrument. After the whole-cell recording mode was obtained, the cells were clamped at −80 mV. 50-Millisecond−50 mV preamplifier was applied prior to a 5 second+40 mV depolarization stimulus. Then the voltage was repolarized to −50 mV for 5 seconds and back to −80 mV. This voltage stimulation was applied every 15 seconds, and the extracellular fluid was recorded over 5 minutes after 2 minutes' record, and then the administration process was started. The compound concentration was started from the lowest test concentration, and each test concentration was given for 2.5 minutes. Test at least 3 cells (n≥3) for each concentration.
4.4.1 Dilute 20 mM mother liquor of the compound with extracellular fluid 5 μL of 20 mM mother liquor of the compound was added to 2495 μL extracellular fluid, and the mixture was 500-fold diluted to 40 μM. Then 0.2% DMSO in extracellular fluid was 3-fold diluted sequentially to obtain the final concentration to be tested.
4.4.2 The max test concentration was 40 μM, 6 concentrations were 40, 13.33, 4.44, 1.48, 0.49, and 0.16 μM respectively.
Experimental data was analyzed by XLFit software.

[1] = test system: human small cell lung cancer NCI-H1417 cells subcutaneous xenograft tumor; experiment: In vivo pharmacodynamic study, NCI-H1417 subcutaneous xenograft tumor CB-17 SCID mouse model; parameters: species or system CB-17 SCID mice; settings: 1.5 mg/kg, PO, QD; day 27 after administration
Procedure: The purpose of this experiment was to investigate the efficacy of some of the compounds of the present invention in the in vivo xenograft tumor of human small cell lung cancer NCI-H1417 cells in a CB-17 SCID mouse model.
Week age and weight: 6-8 weeks old, weight 18-23 g
Human small cell lung cancer NCI-H1417 cells were cultured in vitro in a single layer cultured in RPMI-1640 medium (Sigma-aldrich, R0883), supplemented with 10% fetal bovine serum and cultured at 37° C. 5% CO2. When the cell saturation is 80%-90%. The cells are harvested, counted, and inoculated.
0.2 mL of 10×10^6 (NCI-H1417 cells were subcutaneously inoculated into the right back of each mouse (PBS:Matrigel=1:1). After 21 days of tumor inoculation, group administration was started when the average volume reached 107 mm^3.
The experimental solvent was the 10% hydroxypropyl-β-cyclodextrin solution. The preparation method was as follows: 100 g of hydroxypropyl-β-cyclodextrin was weighed into a 1000 mL jar, 800 mL of ultrapure water was added, stirred overnight until completely dissolved, and then made up to 1000 mL. The test substance was dissolved in a solvent, and was prepared into a uniform solution of a certain concentration and stored at 4° C.
The experimental indicator is to investigate whether tumor growth is inhibited, delayed or cured. Tumor diameters were measured twice a week using vernier calipers. The tumor volume is calculated as: V=0.5a×b^2, and a and b represent the long and short diameters of the tumor, respectively.
The antitumor effect of the compound was evaluated by TG (%). TGI (%), reflecting the tumor growth inhibition rate. TGI (%) calculation: TGI (%)=[1−(the average tumor volume at the end of a treatment group−the average tumor volume at the beginning of the treatment group)/(the average tumor volume at the end of the treatment of the solvent control group−The average tumor volume at the start of treatment in the solvent control group) was ×100%. Solvent control: Vehicle (10% hydroxypropyl-β-cyclodextrin solution).

human LSD1 = human LSD1 (Homo sapiens (Human), UniProt O60341); experiment: Evaluation of enzyme activity: LSD1 fluorescence coupling enzyme assay (HRP/Amplex Red); format: biochemical; settings: human LSD1, histone H3(1-21)K4me2 peptide 10 μM, 30 min pre-incubation
Method in brief: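 Human LSD1 preincubated 30 min with compound, then reacted with H3(1-21)K4me2 peptide (10 μM). FAD-dependent H2O2 detected via HRP/Amplex Red fluorescence (Ex/Em 535/590). Ten-dose, 3-fold dilutions in duplicate from 10 μM gave IC50s, binned into activity classes.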

H1417 cells = experiment: Cell proliferation inhibitory activity on H1417 cells (CellTiter-Glo, 10 days); format: cell-based, human; settings: Homo sapiens
Method in brief: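 H1417 cells in RPMI 1640 with fetal bovine serum were treated with 10-point 3-fold compound dilutions for 10 days. Viability was read by CellTiter-Glo luminescence. IC50 came from a four-parameter fit of percent inhibition, and maximal inhibition was also categorized.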

hERG potassium channel, sequence (Q12809 whole entry): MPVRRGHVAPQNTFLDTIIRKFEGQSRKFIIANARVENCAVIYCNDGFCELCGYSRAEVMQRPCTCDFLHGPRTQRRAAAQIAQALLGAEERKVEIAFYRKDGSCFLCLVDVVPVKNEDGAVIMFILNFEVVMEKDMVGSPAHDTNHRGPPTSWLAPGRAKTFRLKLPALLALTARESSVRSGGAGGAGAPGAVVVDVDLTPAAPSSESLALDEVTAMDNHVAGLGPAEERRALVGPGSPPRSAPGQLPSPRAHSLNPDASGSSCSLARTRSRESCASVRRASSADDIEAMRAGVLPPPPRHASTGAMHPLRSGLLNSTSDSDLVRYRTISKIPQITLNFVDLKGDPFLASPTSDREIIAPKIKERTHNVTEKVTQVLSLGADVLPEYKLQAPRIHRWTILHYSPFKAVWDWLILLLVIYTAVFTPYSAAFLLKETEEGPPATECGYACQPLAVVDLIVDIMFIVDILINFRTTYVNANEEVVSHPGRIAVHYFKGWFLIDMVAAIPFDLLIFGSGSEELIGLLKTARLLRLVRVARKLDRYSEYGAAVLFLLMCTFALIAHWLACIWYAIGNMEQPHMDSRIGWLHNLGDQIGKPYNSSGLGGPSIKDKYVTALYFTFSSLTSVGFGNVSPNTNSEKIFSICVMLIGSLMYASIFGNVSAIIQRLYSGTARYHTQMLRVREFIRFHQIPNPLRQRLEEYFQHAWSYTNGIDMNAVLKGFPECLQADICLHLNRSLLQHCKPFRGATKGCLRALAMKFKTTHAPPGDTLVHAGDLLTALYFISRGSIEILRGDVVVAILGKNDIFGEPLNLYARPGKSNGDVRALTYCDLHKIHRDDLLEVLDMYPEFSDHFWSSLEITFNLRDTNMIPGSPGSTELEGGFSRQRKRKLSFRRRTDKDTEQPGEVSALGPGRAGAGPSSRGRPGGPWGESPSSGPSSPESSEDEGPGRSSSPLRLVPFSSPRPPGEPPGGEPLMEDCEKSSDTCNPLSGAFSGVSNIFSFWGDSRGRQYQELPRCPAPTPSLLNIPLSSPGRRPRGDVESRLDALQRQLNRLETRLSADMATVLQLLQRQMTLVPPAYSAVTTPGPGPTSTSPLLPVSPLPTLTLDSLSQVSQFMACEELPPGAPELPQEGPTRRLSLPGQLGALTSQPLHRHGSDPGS

For `CN[C@H]1CC[C@H](c2nc(C3(CN[C@@H]4C[C@H]4c4ccccc4)CC3)no2)CC1` [Example 232], the IC50 (hERG potassium channel) was over 40000 nM, the “TGI (%)” value [1] was 51.1% and the “Tumor volume (mm^3) (Day 27)” value [1] was 313 ± 28 mm^3. For the same compound, the IC50 (human LSD1) was 50 to 100 nM, the IC50 (H1417 cells; NCI-H1417, 240 h, H1417 cells, 10 days incubation) was 500 to 1000 nM and the Emax (H1417 cells; NCI-H1417, H1417 cells, highest percentage inhibition of cell viability, read-out: Maximum inhibition percentage (%)) was 70 to 90%.
